From ChEMBL document CHEMBL1201862, “PubChem BioAssay data set” (2004)
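Where inhibition never reached the appropriate level, the endpoint shown equals the highest concentration tested. Otherwise, values were interpolated linearly from a five-concentration, 48-hour dose response in 96-well plates. At the GI50, growth is halved.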 Activity calls are given as the source filed them. Rule as the data show it: active = GI50 up to about 1.1 µM and inactive = higher.

Key:
Test in all cases: NCI tumour cell line growth inhibition, 48 h
[1] = test system: 786-0
[2] = test system: A498
[3] = test system: A549
[4] = test system: ACHN
[5] = test system: BT-549
[6] = test system: CAKI-1
[7] = test system: CCRF-CEM
[8] = test system: COLO 205
[9] = test system: DU-145
[10] = test system: EKVX
[11] = test system: HCC 2998
[12] = test system: HCT-116
[13] = test system: HCT-15
[14] = test system: HL-60
[15] = test system: HOP-62
[16] = test system: HT-29
[17] = test system: Hs-578T
[18] = test system: IGROV-1
[19] = test system: K562
[20] = test system: KM12
[21] = test system: LOX IMVI
[22] = test system: M14
[23] = test system: MCF7
[24] = test system: MDA-MB-231
[25] = test system: MDA-MB-435
[26] = test system: MDA-N
[27] = test system: MOLT-4
[28] = test system: Malme-3M
[29] = test system: NCI-H226
[30] = test system: NCI-H23
[31] = test system: NCI-H460
[32] = test system: NCI-H522
[33] = test system: NCI/ADR-RES
[34] = test system: OVCAR-3
[35] = test system: OVCAR-5
[36] = test system: OVCAR-8
[37] = test system: PC-3
[38] = test system: RPMI-8226
[39] = test system: RXF 393
[40] = test system: SF-268
[41] = test system: SF-295
[42] = test system: SF-539
[43] = test system: SK-MEL-28
[44] = test system: SK-MEL-2
[45] = test system: SK-MEL-5
[46] = test system: SK-OV-3
[47] = test system: SN12C
[48] = test system: SNB-19
[49] = test system: SR
[50] = test system: SW-620
[51] = test system: T47D
[52] = test system: TK-10
[53] = test system: U-251
[54] = test system: UACC-257
[55] = test system: UACC-62
[56] = test system: UO-31
[57] = test system: HOP-92
[58] = test system: OVCAR-4
[59] = test system: SNB-75

With `O=C(/C=C(\O)c1cc(-c2ccccc2)n(-c2ccccc2)n1)c1ccccc1` the GI50 [1] was 3.27 µM (inactive), the GI50 [2] was > 100 µM (inactive) and the GI50 [3] was 4.4 µM (inactive). For the same compound, the GI50 [4] was 3.35 µM (inactive), the GI50 [5] was 2.3 µM (inactive) and the GI50 [6] was 3.13 µM (inactive). The GI50 [7] was 1.24 µM (inactive), the GI50 [8] was 4.69 µM (inactive) and the GI50 [9] was 3.61 µM (inactive). The GI50 [10] was 9.59 µM (inactive), the GI50 [11] was 18.2 µM (inactive) and the GI50 [12] was 5.64 µM (inactive). For the same compound, the GI50 [13] was 1.48 µM, the GI50 [14] was 4.43 µM (inactive) and the GI50 [15] was 3.46 µM (inactive). The GI50 [16] was 3.58 µM (inactive), the GI50 [17] was 14.7 µM (inactive) and the GI50 [18] was 2.51 µM (inactive). The GI50 [19] was 3.46 µM (inactive), the GI50 [20] was 4.48 µM (inactive) and the GI50 [21] was 4.37 µM (inactive). The GI50 [22] was 6.24 µM (inactive), the GI50 [23] was 9.73 µM (inactive) and the GI50 [24] was 3.49 µM (inactive). The GI50 [25] was 3.78 µM (inactive), the GI50 [26] was 18.2 µM (inactive) and the GI50 [27] was 0.415 µM (active). For the same compound, the GI50 [28] was 5.09 µM (inactive), the GI50 [29] was 3.38 µM (inactive) and the GI50 [30] was 9.71 µM (inactive). The GI50 [31] was 3.53 µM (inactive), the GI50 [32] was 3.52 µM (inactive) and the GI50 [33] was 5.38 µM (inactive). The GI50 [34] was 4.84 µM (inactive), the GI50 [35] was 19.3 µM (inactive) and the GI50 [36] was 3.2 µM (inactive). The GI50 [37] was 9.29 µM (inactive), the GI50 [38] was 1.8 µM (inactive) and the GI50 [39] was 67.6 µM (inactive). The GI50 [40] was 24.2 µM (inactive), the GI50 [41] was 8.17 µM (inactive) and the GI50 [42] was 10.9 µM (inactive). For the same compound, the GI50 [43] was 0.631 µM (active), the GI50 [44] was 13.4 µM (inactive) and the GI50 [45] was 8.85 µM (inactive). For the same compound, the GI50 [46] was 3.04 µM (inactive), the GI50 [47] was 2.56 µM (inactive) and the GI50 [48] was 5.97 µM (inactive). The GI50 [49] was 1.12 µM (active), the GI50 [50] was 4.62 µM (inactive) and the GI50 [51] was 3.7 µM (inactive). For the same compound, the GI50 [52] was 4.46 µM (inactive), the GI50 [53] was 2.84 µM (inactive) and the GI50 [54] was 59.4 µM (inactive). The GI50 [55] was 2.99 µM (inactive) and the GI50 [56] was 4.27 µM (inactive).

For `CN(C)S(=O)(=O)c1ccc2c(c1)/C(=C1/Nc3ccccc3C1=O)C(=O)N2`, the GI50 [1] was 16 µM (inactive), the GI50 [2] was 29.8 µM (inactive) and the GI50 [3] was > 100 µM (inactive). For the same compound, the GI50 [4] was 12.1 µM (inactive), the GI50 [5] was 15 µM (inactive) and the GI50 [6] was > 100 µM (inactive). The GI50 [7] was > 100 µM (inactive), the GI50 [8] was > 100 µM (inactive) and the GI50 [9] was 24.9 µM (inactive). For the same compound, the GI50 [10] was 24 µM (inactive), the GI50 [11] was > 100 µM (inactive) and the GI50 [12] was 23.1 µM (inactive). The GI50 [13] was 87.9 µM, the GI50 [15] was 15.7 µM (inactive) and the GI50 [57] was 16.8 µM (inactive). For the same compound, the GI50 [16] was > 100 µM (inactive), the GI50 [17] was 14.4 µM (inactive) and the GI50 [18] was 11.9 µM (inactive). For the same compound, the GI50 [19] was 34.8 µM (inactive), the GI50 [20] was > 100 µM (inactive) and the GI50 [21] was 41.6 µM (inactive). The GI50 [22] was > 100 µM (inactive), the GI50 [23] was 24.8 µM (inactive) and the GI50 [24] was 17 µM (inactive). The GI50 [25] was > 100 µM (inactive), the GI50 [26] was > 100 µM (inactive) and the GI50 [27] was 14.1 µM (inactive). For the same compound, the GI50 [28] was > 100 µM (inactive), the GI50 [29] was 25.2 µM (inactive) and the GI50 [30] was 16.1 µM (inactive). For the same compound, the GI50 [31] was 24.7 µM (inactive), the GI50 [32] was 25.5 µM (inactive) and the GI50 [33] was 71.9 µM (inactive). The GI50 [34] was 93.1 µM (inactive), the GI50 [58] was > 100 µM (inactive) and the GI50 [35] was > 100 µM (inactive). For the same compound, the GI50 [36] was 32.5 µM (inactive), the GI50 [37] was 23 µM (inactive) and the GI50 [38] was > 100 µM (inactive). For the same compound, the GI50 [39] was 1.71 µM (inactive), the GI50 [40] was 14.7 µM (inactive) and the GI50 [41] was 12.9 µM (inactive). For the same compound, the GI50 [43] was > 100 µM (inactive), the GI50 [44] was 18.4 µM (inactive) and the GI50 [45] was > 100 µM (inactive). For the same compound, the GI50 [46] was 13.9 µM (inactive), the GI50 [47] was 38 µM (inactive) and the GI50 [48] was 15.7 µM (inactive). The GI50 [59] was 61.7 nM (active), the GI50 [49] was 14.7 µM (inactive) and the GI50 [50] was > 100 µM (inactive). The GI50 [51] was 24.8 µM (inactive), the GI50 [52] was 19.5 µM (inactive) and the GI50 [53] was 10.6 µM (inactive). For the same compound, the GI50 [54] was > 100 µM (inactive), the GI50 [55] was 14.7 µM (inactive) and the GI50 [56] was 44.3 µM (inactive).
